“And” between values parts separate entries of the source, which are not always exact repeats. Identical values can stand only once.
Experiments:
CD8+ T cells in PBMC [1] = type: cell-based, human
CD8+ T cells in PBMC [2] = assay: Granzyme B and perforin detection by flow cytometry; type: cell-based, human

staphylococcal enterotoxin B [SEB]
CD107a mobilization, monofunctional vs polyfunctional cells (CD8+ T cells in PBMC [1]): increases were observed | IFN-γ-level change in polyfunctional cells (CD8+ T cells in PBMC [1]): increases in IFN-γ observed | CD8+ T cells lacking granule proteins (CD8+ T cells in PBMC [2]): 58% and 44.5–70.9%
